According to patent US20090203646A1, “USE OF SODIUM NARCISTATIN FOR REDUCING INTERNAL ADHESIONS AND FIBROSIS” (Sun Health Research Institute, priority 2008, published 2009):
“Also recorded” adds a separate entry of the source.

Legend:
tumor growth = conditions: cited from earlier work
Japanese encephalitis = conditions: flavivvirus infection; cited from earlier work
[1] = tested on: Encephalitozoan intestinalis; conditions: cited from earlier work
arthritic rats = assay: Tolerability of the drug in arthritic rats; type: in vivo, Lewis rats
Excerpt: While there is variability in the severity of disease development between the batches of adjuvant, there is very little within batch variability. All animals in each experiment were challenged with the same preparation of adjuvant. All animals in this experiment that received CFA developed arthritis from this adjuvant preparation. The arthritis disease pathology that developed in both experiments was the same in onset and severity.

[2] = tested on: Spleen cells treated with the T-cell dependent mitogen, Con A; assay: Cytokine production by spleen cells treated with Con A (ELISA); type: cell-based, Lewis rats
Method: (§1) Immune Cell Cytokine Profile Assessment: A second experiment was completed to determined whether the adhesion reducing action of sodium narcistatin could be due to altering immune cell pro-inflammatory cytokine profiles known to […] adhesion formation. Spleen cells were cultured from young adult Lewis rats and treated in vitro with either Con A or LPS, T or B cell mitogen, respectively. Cultures with and without Con A or LPS were then treated with sodium narcistatin (0, 1, or 10 μg/ml). Cultures were incubated for 24 h at 37° C. After 24 h, supernatants were collected and cytokines were assessed using cytokine specific ELISA assays.
Cell Culture: Spleens were aseptically removed into Hank's balanced salt solution (HBSS). The spleens were placed in a stomacher bag and homogenized for 30 seconds. Spleen cells were triturated with a 10 ml pipette then washed with an additional 10 ml of HBSS and passed through a nylon mesh (Marsh Industries) to remove the extraneous connective tissue. The collected cells were centrifuged and resuspended in 5 ml of a NH4Cl hypotonic buffer for 3 min to lyse the red blood cells. The cells were washed 2× with 10 ml HBSS, centrifuged and resuspended into complete RPMI 1640 media supplemented with 5% fetal calf serum and 1% antibiotic/antimycotic.
Cultures for Cytokine Analysis: The prepared cells were counted using a hemocytometer, then brought to the concentration of 2×10^6 cells/ml. Two ml of the cell preparation were plated into 24 well plates (Falcon: Oxnard, Calif.), in the absence or presence of mitogen and in placed in an incubator 7% CO2, 37° C., for 24 h. After 24 h the culture supernatants were harvested and placed in the freezer at −70° C. until ELISA assay.
Cytokine Production: Duo sets for the detection of IL-1, IL-2, IL-4, IL-10, IFN-γ and TNF-α were obtained from R & D Systems and sandwich ELISAs were used to measure the amount cytokine released into the culture media. High binding microtiter 96-well plates were pre-coated with 100 μl of capture antibody in coating buffer for IL-1, IL-2, IL-4, IL-10, IFN-γ and TNF-α (0.15 M phosphate buffer, pH 7.4). The plates were sealed with plate film (Denville Scientific: South Plainfield, N.J.) and placed at 4° C. overnight. […]
(§2) After color development the plates were stopped with addition of 1N sulfuric acid. Unknown sample cytokine levels were determined through comparison with a standard curve present on each plate using an ELISA reader (Ceres 900 HDI: Bio Tek Instruments Incorporated: Winooski, Vt.). The concentrations were averaged for each treatment group at each time point, expressed as mean±SEM in ng/ml, and subjected to a one-way ANOVA (p<0.05) with Bonferroni post-hoc testing.

[3] = tested on: Spleen cells treated with the B-cell dependent mitogen, LPS; assay: Cytokine production by spleen cells treated with LPS (ELISA); type: cell-based, Lewis rats; conditions: 1 or 10 μg/ml, 24 h
Method: as §1
Cell Culture: Spleens were aseptically removed into Hank's balanced salt solution (HBSS). […]
Cultures for Cytokine Analysis: The prepared cells were counted using a hemocytometer, then brought to the concentration of 2×10^6 cells/ml. […]
as §2

Rat fibroblast cells = assay: Fibroblast proliferation, tritiated thymidine assay; type: cell-based
Method: Fibroblast Proliferation Assessment: A third experiment was completed to determined whether the adhesion reducing action of sodium narcistatin could be due to direct effects of sodium narcistatin to prevent fibroblast proliferation.
Proliferation of rat fibroblasts were assessed using standard tritiated thymidine assays as follows. Rat fibroblast cells were cultured in the presence of narcistatin in concentrations ranging from 0 to 1 mg/ml. The assay was completed in triplicate. Cells were pulsed at 24 h with 0.5 μCi 3H-Thymidine/well and incubated for 48 h at 37° C. At 48 h plates were pulled from the incubator and cells were harvested using a Brandel Cell Harvester. Filters with collected cells were washed 12× with 200 μl of ice cold distilled water). Fiberglass filers containing cells were placed into scintillation vials with 4 ml of ScintSafe Econo2 scintillation fluid. Radioactivity measured using a scintillation counter

[4] = tested on: splenic adhesions in the peritoneal cavity of rats with inflammatory arthritis; assay: Adhesion formation in rats with CFA-induced inflammatory arthritis (gross observation and adhesion scoring)
[5] = tested on: intraperitoneal adhesion formation; conditions: after surgery; cited from earlier work

O=C1N[C@@H]2C(=C[C@H](O)[C@@H](O)[C@H]2O)c2cc3c(c(O)c21)OCO3 [Narciclasine, narciclasine]
anticancer properties (tumor growth): anticancer properties

O=C1N[C@H]2[C@H](O)[C@H](O)[C@@H](O)[C@H](O)[C@@H]2c2cc3c(c(O)c21)OCO3 [Pancratastatin]
survival rate (Japanese encephalitis): up to 100%
activity against the parasite [1]: activity
potency in inhibiting tumor growth (tumor growth; relative to sodium narcistatin): more potent than sodium narcistatin

O=C1N[C@@H]2C(=C[C@H](O)[C@H]3OP(=O)(O)O[C@H]32)c2cc3c(c(O)c21)OCO3 [sodium narcistatin]
tolerability (arthritic rats; arthritic animals, 4.5 mg/Kg): tolerate the drug well
body weights, grooming, feeding and drinking behavior (arthritic rats; vehicle- versus narcistatin-treated arthritic rats): no differences
production of IFN-γ ([2]; 1 or 10 μg/ml, 24 h): reduced
production of IL-1 ([2]; 1 or 10 μg/ml, 24 h): reduced
production of IL-2 ([2]; 1 or 10 μg/ml, 24 h): reduced
production of Con-A induced IFN-α ([2]; summary sentence b104): reduced
production of IL-1 (IL-1β) [3]: reduced
production of TNF-α [3]: reduced
inhibition of fibroblast proliferation in vitro (FIG. 6) (Rat fibroblast cells; 0 to 1 mg/ml): potent inhibitor; also recorded: dose dependent
reduction of fibroblast proliferation (Rat fibroblast cells; at 0.001 mg/ml): 50%
fibroblast proliferation reduced to (Rat fibroblast cells; at 0.01 mg/ml): ~0%
number of adhesions in the thoracic and abdominal cavities ([4]; arthritic animals, compared to untreated or vehicle-treated arthritic animals): dramatically reduced
splenic adhesion development in peritoneal cavity (FIG. 2) ([4]; arthritic rats, 4.5 mg/Kg intraperitoneal, day 10 to day 28 post-immunization): little to no adhesions
formation of dense fibrous connective tissue covering over the spleen and pancreas (adhesion scoring, FIG. 3) ([4]; arthritic rats, 4.5 mg/Kg intraperitoneal, blinded subjective scoring): largely prevented

O=C(c1ccccc1)c1ccc2n1CCC2C(=O)O (centres unmarked) [Ketorolac, reference compound]
adhesion formation/reformation [5]: reduces adhesion formation

B1: IL-10: anti-inflammatory cytokine (protein, UniProt P22301 19-178, looked up)
Interleukin-10: SPGQGTQSENSCTHFPGNLPNMLRDLRDAFSRVKTFFQMKDQLDNLLLKESLLEDFKGYLGCQALSEMIQFYLEEVMPQAENQDPDIKAHVNSLGENLKTLRLRLRRCHRFLPCENKSKAVEQVKNAFNKLQEKGIYKAMSEFDIFINYIEAYMTMKIRN
adhesion formation/reformation [5]: reduces adhesions; also recorded: limited
